According to patent publication US20160120863A1, “SLC2A TRANSPORTER INHIBITORS” (IOMET PHARMA LTD., priority 2013, published 2016):

Columns and labels:
Assay type in all cases: cell-based
[1] = target: T1, human GLUT3 (Homo sapiens, UniProt P11169); assay: [3H]-deoxy-D-glucose uptake assay, GLUT3; conditions: [3H]-deoxy-D-glucose uptake in HEK293 cells stably expressing human GLUT3
T1 construct: expressed in transfected cells
T1 sequence (P11169 1-496): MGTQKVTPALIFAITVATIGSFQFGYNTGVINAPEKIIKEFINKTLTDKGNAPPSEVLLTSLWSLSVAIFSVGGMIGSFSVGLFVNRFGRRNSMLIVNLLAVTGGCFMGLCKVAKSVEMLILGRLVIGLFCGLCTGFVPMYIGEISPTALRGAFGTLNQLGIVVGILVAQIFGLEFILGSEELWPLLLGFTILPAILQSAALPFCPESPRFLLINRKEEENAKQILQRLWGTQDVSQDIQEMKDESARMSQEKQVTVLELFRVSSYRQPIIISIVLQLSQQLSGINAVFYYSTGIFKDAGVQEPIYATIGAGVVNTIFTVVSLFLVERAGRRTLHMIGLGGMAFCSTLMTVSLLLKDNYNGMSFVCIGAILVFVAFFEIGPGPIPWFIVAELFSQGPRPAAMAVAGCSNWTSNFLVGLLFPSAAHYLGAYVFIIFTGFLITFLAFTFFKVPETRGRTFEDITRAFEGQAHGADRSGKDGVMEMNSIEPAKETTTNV
Description: (§1) HEK293 cells were engineered to stably express either human GLUT1, GLUT2, GLUt3 or GLUT4 by transfection with the pReceiver-Lv105 plasmid, containing either hGLUT1, hGLUT2, hGLUT3, or hGLUT4 gene constructs with lipofectamine 2000, hGLUT1- hGLUT2- hGLUT3- or hGLUT4-overexpressing polyclonal populations were isolated under purinomycin selective pressure (1 μg/ml) and maintained in Dulbecco's modified Eagle's medium supplemented with 1 μg/ml purinomycin+10% foetal bovine serum (FBS).
(§2) 60,000 cells per well were seeded overnight into poly-D-lysine coasted 96-well plates. Following media removal, cells were washed twice in warm glucose-free uptake buffer (25 mM HEPES/KOH pH 7.4, 125 mM NaCl, 4.8 mM KCl, 1.2 mM MgSO4, 1.2 mM CaCl2, 1.2 mM KH2PO4). 90 μl of test compounds were added in glucose-free uptake buffer and cells were incubated at 37° C. for 30 min. 10 μl of [3H]-deoxy-D-glucose (0.25 μCi, 125 μM final assay concentration) was then added per well in glucose-free uptake buffer and uptake was allowed to proceed at 37° C. for 30 min.
(§3) Cells were then washed twice with ice-cold PBS and 100 μl of Microscint-20 was added per well. Glucose uptake was quantified with a scintillation counter. The half maximal inhibitory concentration (IC50) (a measure of the effectiveness of the test compound in inhibiting glucose uptake) was determined.

[2] = target: T2, human GLUT1 (Homo sapiens, UniProt P11166); assay: [3H]-deoxy-D-glucose uptake assay, GLUT1; conditions: [3H]-deoxy-D-glucose uptake in HEK293 cells stably expressing human GLUT1
T2 construct: expressed in transfected cells
T2 sequence (P11166 1-492): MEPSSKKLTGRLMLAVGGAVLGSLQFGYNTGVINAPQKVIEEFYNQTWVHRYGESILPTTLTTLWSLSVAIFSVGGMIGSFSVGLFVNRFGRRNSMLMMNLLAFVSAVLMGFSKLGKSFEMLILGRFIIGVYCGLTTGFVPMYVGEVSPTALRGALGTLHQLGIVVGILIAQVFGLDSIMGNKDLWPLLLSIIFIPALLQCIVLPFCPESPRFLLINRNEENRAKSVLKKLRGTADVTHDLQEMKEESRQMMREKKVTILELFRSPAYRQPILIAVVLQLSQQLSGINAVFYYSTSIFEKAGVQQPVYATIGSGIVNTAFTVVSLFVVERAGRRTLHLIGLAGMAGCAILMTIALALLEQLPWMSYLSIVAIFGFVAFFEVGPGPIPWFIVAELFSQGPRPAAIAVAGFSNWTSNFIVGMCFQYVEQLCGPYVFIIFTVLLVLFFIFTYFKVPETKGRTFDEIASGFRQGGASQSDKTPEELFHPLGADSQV
In short: (§4)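 HEK293 cells stably overexpressing human GLUT1 or GLUT2, seeded at 60,000 per well, treated with compounds in glucose-free uptake buffer for 30 min at 37 °C. [3H]-deoxy-D-glucose uptake quantified by scintillation counting after ice-cold PBS washes; IC50 determined.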

[3] = target: T3, human GLUT4 (Homo sapiens, UniProt P14672); assay: [3H]-deoxy-D-glucose uptake assay, GLUT4; conditions: [3H]-deoxy-D-glucose uptake in HEK293 cells stably expressing human GLUT4
T3 construct: expressed in transfected cells
T3 sequence (P14672 1-509): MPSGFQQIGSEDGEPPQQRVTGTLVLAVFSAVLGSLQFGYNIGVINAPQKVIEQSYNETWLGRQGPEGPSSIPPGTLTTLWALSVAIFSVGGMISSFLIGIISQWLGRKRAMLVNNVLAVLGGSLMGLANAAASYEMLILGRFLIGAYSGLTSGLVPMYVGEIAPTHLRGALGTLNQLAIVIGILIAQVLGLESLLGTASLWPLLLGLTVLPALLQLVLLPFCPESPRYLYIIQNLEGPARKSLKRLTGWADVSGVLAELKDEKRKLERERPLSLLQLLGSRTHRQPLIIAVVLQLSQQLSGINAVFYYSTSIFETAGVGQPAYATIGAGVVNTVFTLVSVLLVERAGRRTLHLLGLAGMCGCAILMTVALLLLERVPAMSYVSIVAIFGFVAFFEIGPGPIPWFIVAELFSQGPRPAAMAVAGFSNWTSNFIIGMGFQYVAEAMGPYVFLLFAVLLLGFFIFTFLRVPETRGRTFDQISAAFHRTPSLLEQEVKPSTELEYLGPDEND
Description: as §1, §2, §3

[4] = target: T4, human GLUT2 (Homo sapiens, UniProt P11168); assay: [3H]-deoxy-D-glucose uptake assay, GLUT2; conditions: [3H]-deoxy-D-glucose uptake in HEK293 cells stably expressing human GLUT2
T4 construct: expressed in transfected cells
T4 sequence (P11168 1-524): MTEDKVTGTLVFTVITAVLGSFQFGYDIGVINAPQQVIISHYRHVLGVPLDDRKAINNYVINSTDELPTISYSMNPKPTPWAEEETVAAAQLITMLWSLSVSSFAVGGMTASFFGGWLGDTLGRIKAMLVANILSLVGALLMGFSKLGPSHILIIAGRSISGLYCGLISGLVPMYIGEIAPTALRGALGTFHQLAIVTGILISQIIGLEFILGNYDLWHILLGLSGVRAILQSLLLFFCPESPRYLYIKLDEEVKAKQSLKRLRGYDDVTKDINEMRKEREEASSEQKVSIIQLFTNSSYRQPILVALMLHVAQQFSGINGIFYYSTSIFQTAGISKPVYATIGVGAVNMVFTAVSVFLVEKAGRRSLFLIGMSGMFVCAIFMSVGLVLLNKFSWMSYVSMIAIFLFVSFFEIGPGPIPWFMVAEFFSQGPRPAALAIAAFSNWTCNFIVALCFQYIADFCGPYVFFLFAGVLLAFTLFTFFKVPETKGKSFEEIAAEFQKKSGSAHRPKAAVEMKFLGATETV
In short: as §4

Row | Structure (SMILES) | GLUT3 pIC50 [1] | GLUT1 pIC50 [2] | GLUT4 pIC50 [3] | GLUT2 pIC50 [4]
1 | CC(=O)N1CCN(Cc2c(-c3ccc(Cl)cc3)nc3ccc(S(=O)(=O)N(C)C)cn23)CC1 [Compound 350] | +++ (pIC50 ≧ 6.00) | +++ (pIC50 ≧ 6.00) | +++ (pIC50 ≧ 6.00) | ++ (pIC50 5.00-5.99)
2 | CCS(=O)(=O)Nc1ccc2nc(-c3ccc(Cl)cc3)c(CN3CCN(C(C)=O)CC3)n2c1 [Compound 314] | +++ (pIC50 ≧ 6.00) | +++ (pIC50 ≧ 6.00) | +++ (pIC50 ≧ 6.00) | ++ (pIC50 5.00-5.99)
3 | CS(=O)(=O)Nc1ccc2nc(-c3ccc(Cl)cc3Cl)c(CN3CCN(C(=O)c4ccc(F)cc4)CC3)n2c1 [Compound 360] | +++ (pIC50 ≧ 6.00) | +++ (pIC50 ≧ 6.00) | +++ (pIC50 ≧ 6.00) | ++ (pIC50 5.00-5.99)
4 | CC(=O)N1CCN(Cc2c(-c3ccc(Cl)cc3)nc3ccc(N(C)S(=O)(=O)C(C)C)cn23)CC1 [Compound 340] | +++ (pIC50 ≧ 6.00) | +++ (pIC50 ≧ 6.00) | +++ (pIC50 ≧ 6.00) | ++ (pIC50 5.00-5.99)
5 | Cn1cc(C(=O)N2CCN(Cc3c(-c4ccc(Cl)cc4Cl)nc4ccc(NS(C)(=O)=O)cn34)CC2)cn1 [Compound 369] | +++ (pIC50 ≧ 6.00) | +++ (pIC50 ≧ 6.00) | +++ (pIC50 ≧ 6.00) | ++ (pIC50 5.00-5.99)
6 | CN(c1ccc2nc(-c3ccc(Cl)cc3)c(CN3CCN(C(=O)c4ccnnc4)CC3)n2c1)S(C)(=O)=O [Compound 310] | +++ (pIC50 ≧ 6.00) | +++ (pIC50 ≧ 6.00) | +++ (pIC50 ≧ 6.00) | ++ (pIC50 5.00-5.99)
7 | COCC(=O)N1CCN(Cc2c(-c3ccc(Cl)cc3)nc3ccc(N(C)S(C)(=O)=O)cn23)CC1 [Compound 303] | +++ (pIC50 ≧ 6.00) | +++ (pIC50 ≧ 6.00) | +++ (pIC50 ≧ 6.00) | ++ (pIC50 5.00-5.99)
8 | CC(=O)N1CCN(Cc2c(-c3ccc(Cl)cc3)nc3ccc(N4CCCCS4(=O)=O)cn23)CC1 [Compound 326] | +++ (pIC50 ≧ 6.00) | +++ (pIC50 ≧ 6.00) | +++ (pIC50 ≧ 6.00) | +++ (pIC50 ≧ 6.00)
9 | CC(=O)N1CCN(Cc2c(-c3ccc(Cl)cc3)nc3ccc(N(C(F)F)S(C)(=O)=O)cn23)CC1 [Compound 368] | +++ (pIC50 ≧ 6.00) | +++ (pIC50 ≧ 6.00) | +++ (pIC50 ≧ 6.00) | +++ (pIC50 ≧ 6.00)
10 | O=C(c1cscn1)N1CCN(Cc2c(-c3ccc(Cl)cc3Cl)nc3cnc(C4CC4)cn23)CC1 [Compound 306] | +++ (pIC50 ≧ 6.00) | +++ (pIC50 ≧ 6.00) | +++ (pIC50 ≧ 6.00) | +++ (pIC50 ≧ 6.00)
11 | CN(c1ccc2nc(-c3ccc(Cl)cc3Cl)c(CN3CCn4ncnc4C3)n2c1)S(C)(=O)=O [Compound 346] | +++ (pIC50 ≧ 6.00) | +++ (pIC50 ≧ 6.00) | +++ (pIC50 ≧ 6.00) | ++ (pIC50 5.00-5.99)
12 | O=C(c1ccnnc1)N1CCN(Cc2c(-c3ccc(Cl)cc3Cl)nc3cnc(C4CC4)cn23)CC1 [Compound 296] | +++ (pIC50 ≧ 6.00) | +++ (pIC50 ≧ 6.00) | +++ (pIC50 ≧ 6.00) | +++ (pIC50 ≧ 6.00)
13 | CCN(c1ccc2nc(-c3ccc(Cl)cc3)c(CN3CCN(C(C)=O)CC3)n2c1)S(C)(=O)=O [Compound 353] | +++ (pIC50 ≧ 6.00) | +++ (pIC50 ≧ 6.00) | +++ (pIC50 ≧ 6.00) | ++ (pIC50 5.00-5.99)
14 | CC(=O)N1CCN(Cc2c(-c3ccc(Cl)cc3)nc3ccc(S(=O)(=O)C(C)C)cn23)CC1 [Compound 382] | +++ (pIC50 ≧ 6.00) | +++ (pIC50 ≧ 6.00) | +++ (pIC50 ≧ 6.00) | ++ (pIC50 5.00-5.99)
15 | Fc1ccc(-c2ccc3nc(-c4ccc(Cl)cc4)c(CN4CCOCC4)n3c2)cc1 [Compound 79] | + (pIC50 4.00-4.99) | +− (pIC50 < 4.00) | ++ (pIC50 5.00-5.99) | +− (pIC50 < 4.00)
16 | Fc1ccccc1-c1ccc2nc(-c3ccc(Cl)cc3)c(CN3CCOCC3)n2c1 [Compound 80] | +++ (pIC50 ≧ 6.00) | +++ (pIC50 ≧ 6.00) | +++ (pIC50 ≧ 6.00) | –
17 | Clc1ccc(-c2nc3ccc(-c4ccccc4Cl)cn3c2CN2CCOCC2)cc1 [Compound 116] | +++ (pIC50 ≧ 6.00) | +++ (pIC50 ≧ 6.00) | +++ (pIC50 ≧ 6.00) | –
18 | CC(C)(O)C(=O)N1CCN(Cc2c(-c3ccc(Cl)cc3Cl)nc3ccc(NS(C)(=O)=O)cn23)CC1 [Compound 361] | +++ (pIC50 ≧ 6.00) | +++ (pIC50 ≧ 6.00) | +++ (pIC50 ≧ 6.00) | ++ (pIC50 5.00-5.99)
19 | CN(c1ccc2nc(-c3ccc(Cl)cc3)c(CN3CCN(C(=O)C4COC4)CC3)n2c1)S(C)(=O)=O [Compound 309] | +++ (pIC50 ≧ 6.00) | +++ (pIC50 ≧ 6.00) | +++ (pIC50 ≧ 6.00) | ++ (pIC50 5.00-5.99)
20 | Cc1c(-c2ccccc2)ccc2nc(-c3ccc(Cl)cc3)c(CN3CCOCC3)n12 [Compound 170] | +++ (pIC50 ≧ 6.00) | +++ (pIC50 ≧ 6.00) | +++ (pIC50 ≧ 6.00) | –
